# Measurements from US20040198756A1, “Medicaments” (priority 2001, published 2004).
# Counter-ions that a name gives are not always drawn.
# System: S. aureus WCUH29, S. pneumoniae 1629, H. influenzae ATCC 51907, M. catarrhalis Ravisio
# Assay: MIC of further test compounds against an alternative selection of organisms
# Type: cell-based
# Conditions: read-out: MIC values versus some of these organisms
# Method: The MIC (μg/ml) of further test compounds against an alternative selection of organisms was determined:
# S. aureus WCUH29, S. pneumoniae 1629, H. influenzae ATCC 51907, M. catarrhalis Ravisio.
smiles,measurement,value
"COc1ccc2nccc(NC(=O)C3(C(F)(F)F)CCN(CCc4cc5c(nn4)SCC(=O)N5)CC3)c2n1 [Example 24, 1-[2-(6-Oxo-6,7-dihydro-5H-8-thia-1,2,5-triazanaphthalen-3-yl)ethyl]-4-trifluoromethylpiperidine-4-carboxylic acid (6-methoxy-[1,5]naphthyridin-4-yl) amide dihydrochloride]",MIC,≤ 16 µg/mL
